Assay results from PubChem BioAssay (NCI).
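Cultured in 96-well plates, cells were exposed to test compound for 48 hours across five concentrations. TGI is the concentration that stops growth completely.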

Legend:
Test in all cases: NCI tumour cell line growth inhibition, 48 h
[1] = tested on: ACHN renal
[2] = tested on: XF 498 CNS
[3] = tested on: RPMI-8226 leukemia
[4] = tested on: M19-MEL melanoma
[5] = tested on: KM12 colon
[6] = tested on: CCRF-CEM leukemia
[7] = tested on: COLO 205 colon
[8] = tested on: SK-MEL-5 melanoma
[9] = tested on: LXFL 529 NSCLC
[10] = tested on: OVCAR-5 ovarian
[11] = tested on: DMS 114 small cell lung
[12] = tested on: OVCAR-8 ovarian
[13] = tested on: EKVX NSCLC
[14] = tested on: HCT-15 colon
[15] = tested on: UACC-62 melanoma
[16] = tested on: SK-MEL-2 melanoma
[17] = tested on: SK-OV-3 ovarian
[18] = tested on: A498 renal
[19] = tested on: SN12C renal
[20] = tested on: OVCAR-4 ovarian
[21] = tested on: UO-31 renal
[22] = tested on: LOX IMVI melanoma
[23] = tested on: HOP-62 NSCLC
[24] = tested on: OVCAR-3 ovarian
[25] = tested on: IGROV1 ovarian
[26] = tested on: MOLT-4 leukemia
[27] = tested on: A549 NSCLC
[28] = tested on: NCI-H23 lung
[29] = tested on: KM20L2 colon
[30] = tested on: NCI-H460 lung
[31] = tested on: M14 melanoma
[32] = tested on: HOP-18 NSCLC
[33] = tested on: UACC-257 melanoma
[34] = tested on: MALME-3M melanoma
[35] = tested on: SNB-75 CNS
[36] = tested on: 786-0 renal
[37] = tested on: HL-60(TB) leukemia
[38] = tested on: K-562 leukemia
[39] = tested on: U251 CNS
[40] = tested on: SNB-19 CNS
[41] = tested on: SF-268 CNS
[42] = tested on: NCI-H226 lung
[43] = tested on: HOP-92 NSCLC
[44] = tested on: HCC-2998 colon
[45] = tested on: CAKI-1 renal
[46] = tested on: SF-539 CNS
[47] = tested on: HCT-116 colon
[48] = tested on: NCI-H522 lung
[49] = tested on: DMS 273 small cell lung
[50] = tested on: SR leukemia
[51] = tested on: DLD-1 colon
[52] = tested on: SW-620 colon
[53] = tested on: SNB-78 CNS
[54] = tested on: SF-295 CNS
[55] = tested on: TK-10 renal
[56] = tested on: HT29 colon
[57] = tested on: SK-MEL-28 melanoma
[58] = tested on: RXF 393 renal

Measured: TGI

CC(=O)Nc1ccc(C(=O)NN2C(=O)C(Cl)C2c2cc(Br)cc(Br)c2O)cc1 (stereo not drawn)
> 100 µM: [1] | [2] | [3] | [4] | [5] | [6] | [7] | [8] | [9] | [10] | [11] | [12] | [13] | [14] | [15] | [16] | [17] | [18] | [19] | [20] | [21] | [22] | [23] | [24] | [25] | [26] | [27] | [28] | [29] | [30] | [31] | [32] | [33] | [34] | [35] | [36] | [37] | [38] | [39] | [40] | [41] | [42] | [43] | [44] | [45] | [46] | [47] | [48] | [49] | [50] | [51] | [52]

COc1ccc(CNc2cnc3ccc(N)cc3n2)cc1OC
> 100 µM: [1] | [2] | [3] | [4] | [5] | [6] | [7] | [8] | [10] | [11] | [12] | [13] | [14] | [53] | [16] | [19] | [54] | [20] | [21] | [22] | [24] | [55] | [26] | [27] | [28] | [30] | [56] | [31] | [32] | [33] | [34] | [35] | [36] | [37] | [38] | [40] | [41] | [57] | [42] | [44] | [45] | [46] | [47] | [48] | [49] | [50] | [51] | [52]

Cc1ccccc1Cn1nc2ccccc2cc1=O
> 100 µM: [1] | [2] | [3] | [4] | [5] | [6] | [7] | [8] | [10] | [11] | [12] | [13] | [14] | [15] | [53] | [16] | [17] | [18] | [19] | [54] | [20] | [21] | [22] | [23] | [24] | [55] | [25] | [27] | [28] | [29] | [30] | [56] | [31] | [32] | [33] | [34] | [35] | [36] | [38] | [39] | [40] | [41] | [57] | [42] | [43] | [44] | [45] | [46] | [47] | [49] | [51] | [52]

COc1ccc(-c2csc(=[N+]3CCCCC3)s2)cc1
23.5 µM: [41]
26.9 µM: [9]
16.6 µM: [16]
11.4 µM: [4]
8.36 µM: [3]
8.73 µM: [54]
24 µM: [29]
44.8 µM: [30]
17.8 µM: [2]
27.8 µM: [47]
83 µM: [32]
26.6 µM: [33]
18.1 µM: [5]
> 100 µM: [1] | [12] | [13] | [14] | [53] | [19] | [21] | [22] | [55] | [25] | [27] | [31] | [36] | [39] | [40] | [44] | [51] | [52]
17.6 µM: [17]
24.1 µM: [15]
24.2 µM: [38]
13.1 µM: [34]
8.06 µM: [23]
8.22 µM: [35]
9.37 µM: [42]
6.58 µM: [28]
29.7 µM: [57]
56.5 µM: [58]
2.85 µM: [7]
8.42 µM: [45]
14.6 µM: [6]
13.3 µM: [49]
10.3 µM: [26]
10.2 µM: [37]
5.17 µM: [48]
11.2 µM: [50]
95.3 µM: [46]
31.6 µM: [24]
7.73 µM: [43]
76.8 µM: [10]
29.9 µM: [56]
36.1 µM: [20]
4.76 µM: [8]

CN(C)N=Nc1cn[nH]c1C(N)=O
93.3 µM: [15]
> 100 µM: [1] | [2] | [3] | [4] | [5] | [6] | [7] | [8] | [9] | [10] | [11] | [12] | [13] | [14] | [16] | [17] | [18] | [19] | [54] | [20] | [22] | [23] | [24] | [55] | [25] | [26] | [27] | [28] | [29] | [30] | [56] | [31] | [32] | [33] | [34] | [35] | [36] | [37] | [38] | [39] | [40] | [41] | [57] | [42] | [43] | [44] | [45] | [46] | [47] | [48] | [49] | [50] | [51] | [52]
